Experimental data: ChEMBL document CHEMBL5241066, “Research progress of MEK1/2 inhibitors and degraders in the treatment of cancer” (Eur J Med Chem, 2021)

System: KE-37
Experiment: Anticancer activity against human KE-37 cells assessed as reduction in cell viability
Format: functional, cell-based

C=CCc1cccc(/C=N/NC(=O)CN2CCN(Cc3ccccc3)CC2)c1O [PAC-1]
IC50: 0.242 µM
